Test results taken from the supplement of paper PMC7214452.

Experiments:
Assay in all cases: normalized area under the dose-response curve (viability relative to DMSO control) (fraction); higher = less sensitive (more viable cells)
Details in all cases: exposure time not given
[1] = tested on: AMO1 (cancer type: MM)
Description: (§1)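 25 myeloma and 15 non-Hodgkin lymphoma cell lines were exposed to each of 76 drugs as 7-point log dilutions (0.01 nM–10 µM) in duplicate. Viability was read with CellTiter-Glo and normalised to DMSO (0.1%) and staurosporine (10 µM) plate controls. Normalised AUC was calculated by the trapezoidal method relative to the negative control.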

[2] = tested on: EJM (cancer type: MM)
Description: as §1

[3] = tested on: FR4 (cancer type: MM)
Description: as §1

[4] = tested on: Granta-519 (cancer type: Mantle)
Description: as §1

[5] = tested on: HuT 78 (cancer type: TCL)
Description: as §1

[6] = tested on: JJN3 (cancer type: MM)
Description: as §1

[7] = tested on: JVM2 (cancer type: Mantle)
Description: as §1

[8] = tested on: JeKo-1 (cancer type: Mantle)
Description: as §1

[9] = tested on: KMS11 (cancer type: MM)
Description: as §1

[10] = tested on: KMS12PE (cancer type: MM)
Description: as §1

[11] = tested on: KMS18 (cancer type: MM)
Description: as §1

[12] = tested on: KMS26 (cancer type: MM)
Description: as §1

[13] = tested on: KMS28BM (cancer type: MM)
Description: as §1

[14] = tested on: KMS28PE (cancer type: MM)
Description: as §1

[15] = tested on: KMS34 (cancer type: MM)
Description: as §1

[16] = tested on: Karpas-299 (cancer type: TCL)
Description: as §1

[17] = tested on: L363 (cancer type: MM)
Description: as §1

[18] = tested on: LP1 (cancer type: MM)
Description: as §1

[19] = tested on: MM1.R (cancer type: MM)
Description: as §1

[20] = tested on: MM1.S (cancer type: MM)
Description: as §1

[21] = tested on: Mino (cancer type: Mantle)
Description: as §1

[22] = tested on: My-La (cancer type: TCL)
Description: as §1

[23] = tested on: NCI-H929 (cancer type: MM)
Description: as §1

[24] = tested on: OCI-LY1 (cancer type: DLBCL)
Description: as §1

[25] = tested on: OCI-LY19 (cancer type: DLBCL)
Description: as §1

[26] = tested on: OCI-LY3 (cancer type: DLBCL)
Description: as §1

[27] = tested on: OCI-MY5 (cancer type: MM)
Description: as §1

[28] = tested on: OCI-MY5/CRBN (cancer type: MM)
Description: as §1

[29] = tested on: OCI-MY5/Vec (cancer type: MM)
Description: as §1

[30] = tested on: OCI-MY7 (cancer type: MM)
Description: as §1

[31] = tested on: OPM2 (cancer type: MM)
Description: as §1

[32] = tested on: RPMI 8226 (cancer type: MM)
Description: as §1

[33] = tested on: SKMM2 (cancer type: MM)
Description: as §1

[34] = tested on: SR-786 (cancer type: TCL)
Description: as §1

[35] = tested on: SU-DHL1 (cancer type: TCL)
Description: as §1

[36] = tested on: SU-DHL2 (cancer type: DLBCL)
Description: as §1

[37] = tested on: SU-DHL6 (cancer type: DLBCL)
Description: as §1

[38] = tested on: Se-Ax (cancer type: TCL)
Description: as §1

[39] = tested on: U266 (cancer type: MM)
Description: as §1

[40] = tested on: XG2 (cancer type: MM)
Description: as §1

Row | Structure (SMILES) | normalized area under the dose-response curve [1] | normalized area under the dose-response curve [2] | normalized area under the dose-response curve [3] | normalized area under the dose-response curve [4] | normalized area under the dose-response curve [5] | normalized area under the dose-response curve [6] | normalized area under the dose-response curve [7] | normalized area under the dose-response curve [8] | normalized area under the dose-response curve [9] | normalized area under the dose-response curve [10] | normalized area under the dose-response curve [11] | normalized area under the dose-response curve [12] | normalized area under the dose-response curve [13] | normalized area under the dose-response curve [14] | normalized area under the dose-response curve [15] | normalized area under the dose-response curve [16] | normalized area under the dose-response curve [17] | normalized area under the dose-response curve [18] | normalized area under the dose-response curve [19] | normalized area under the dose-response curve [20] | normalized area under the dose-response curve [21] | normalized area under the dose-response curve [22] | normalized area under the dose-response curve [23] | normalized area under the dose-response curve [24] | normalized area under the dose-response curve [25] | normalized area under the dose-response curve [26] | normalized area under the dose-response curve [27] | normalized area under the dose-response curve [28] | normalized area under the dose-response curve [29] | normalized area under the dose-response curve [30] | normalized area under the dose-response curve [31] | normalized area under the dose-response curve [32] | normalized area under the dose-response curve [33] | normalized area under the dose-response curve [34] | normalized area under the dose-response curve [35] | normalized area under the dose-response curve [36] | normalized area under the dose-response curve [37] | normalized area under the dose-response curve [38] | normalized area under the dose-response curve [39] | normalized area under the dose-response curve [40]
1 | CC(C)C[C@H](NC(=O)[C@H](Cc1ccccc1)NC(=O)c1cnccn1)B(O)O [Bortezomib] | 0.0751 | 0.0632 | 0.7 | 0.0456 | 0.192 | 0.343 | 0.0575 | 0.009 | 0.131 | 0.26 | 0.0645 | 0.0685 | 0.0704 | 0.0881 | 0.196 | 0.332 | 0.0891 | 0.255 | 0.06 | 0.09 | 0.0129 | 0.23 | 0.09 | 0.0798 | 0.111 | 0.0249 | 0.116 | 0.0146 | 0.015 | 0.08 | 0.197 | 0.261 | 0.212 | 0.285 | 0.1 | 0.0391 | 0.536 | 0.102 | 0.167 | 0.05
2 | COc1cc(Nc2c(C#N)cnc3cc(OCCCN4CCN(C)CC4)c(OC)cc23)c(Cl)cc1Cl [Bosutinib] | 0.45 | 0.663 | 0.598 | 0.771 | 0.714 | 0.571 | 0.534 | 0.889 | 0.5 | 0.58 | 0.798 | 0.863 | 0.629 | 0.54 | 0.447 | 0.701 | 0.525 | 0.451 | 0.77 | 0.83 | 0.653 | 0.795 | 0.8 | 0.856 | 0.898 | 0.792 | 0.39 | 0.933 | 0.914 | 0.79 | 0.606 | 0.651 | 0.697 | 0.872 | 0.667 | 0.836 | 0.924 | 0.736 | 0.874 | 0.501
3 | COc1cc(N2CCC(N3CCN(C)CC3)CC2)ccc1Nc1ncc(Cl)c(Nc2ccccc2P(C)(C)=O)n1 [Brigatinib] | 0.525 | 0.55 | 0.723 | 0.84 | 0.524 | 0.527 | 0.855 | 0.815 | 0.466 | 0.79 | 0.469 | 0.611 | 0.539 | 0.191 | 0.308 | 0.504 | 0.538 | 0.598 | 0.51 | 0.46 | 0.863 | 0.76 | 0.39 | 0.989 | 0.803 | 0.921 | 0.574 | 0.835 | 0.785 | 0.83 | 0.179 | 0.351 | 0.789 | 0.556 | 0.123 | 0.936 | 0.891 | 0.748 | 0.5 | 0.745
4 | Nc1cc(C(F)(F)F)c(-c2cc(N3CCOCC3)nc(N3CCOCC3)n2)cn1 [Buparlisib] | 0.424 | 0.654 | 0.454 | 0.493 | 0.348 | 0.55 | 0.497 | 0.365 | 0.477 | 0.55 | 0.445 | 0.498 | 0.562 | 0.38 | 0.165 | 0.513 | 0.414 | 0.493 | 0.28 | 0.3 | 0.516 | 0.627 | 0.3 | 0.562 | 0.564 | 0.571 | 0.509 | 0.605 | 0.561 | 0.71 | 0.392 | 0.358 | 0.573 | 0.473 | 0.375 | 0.689 | 0.685 | 0.431 | 0.443 | 0.303
5 | Cc1noc2c1-c1ccccc1C(c1ccc(Cl)cc1)=N[C@H]2CC(N)=O [CPI0610] | 0.526 | 0.782 | 0.691 | 0.905 | 0.775 | 0.556 | 0.693 | 0.889 | 0.642 | 0.69 | 0.746 | 0.492 | 0.841 | 0.704 | 0.571 | 0.72 | 0.601 | 0.687 | 0.67 | 0.61 | 0.686 | 0.748 | 0.63 | 0.922 | 0.771 | 0.938 | 0.554 | 0.721 | 0.717 | 0.52 | 0.685 | 0.629 | 0.675 | 0.713 | 0.794 | 0.696 | 0.868 | 0.721 | 0.583 | 0.728
6 | COc1cc2nccc(Oc3ccc(NC(=O)C4(C(=O)Nc5ccc(F)cc5)CC4)cc3)c2cc1OC [Cabozantinib] | 0.715 | 0.756 | 0.743 | 0.863 | 0.762 | 0.706 | 0.63 | 0.852 | 0.628 | 0.72 | 0.789 | 0.94 | 0.793 | 0.645 | 0.68 | 0.918 | 0.762 | 0.803 | 0.59 | 0.59 | 0.951 | 0.94 | 0.61 | 0.956 | 0.867 | 0.865 | 0.605 | 0.858 | 0.729 | 0.82 | 0.631 | 0.719 | 0.798 | 0.964 | 0.895 | 0.917 | 0.91 | 0.721 | 0.672 | 0.734
7 | CC(C)C[C@H](NC(=O)[C@H](CCc1ccccc1)NC(=O)CN1CCOCC1)C(=O)N[C@@H](Cc1ccccc1)C(=O)N[C@@H](CC(C)C)C(=O)[C@@]1(C)CO1 [Carfilzomib] | 0.0997 | 0.104 | 0.638 | 0.094 | 0.32 | 0.356 | 0.0748 | 0.0922 | 0.128 | 0.18 | 0.0656 | 0.0786 | 0.0754 | 0.11 | 0.147 | 0.25 | 0.095 | 0.225 | 0.07 | 0.11 | 0.0636 | 0.19 | 0.12 | 0.0418 | 0.0752 | 0.0311 | 0.105 | 0.0124 | 0.0171 | 0.11 | 0.187 | 0.285 | 0.264 | 0.25 | 0.157 | 0.0281 | 0.387 | 0.113 | 0.177 | 0.0918
8 | Cc1cc(Nc2ncc(Cl)c(Nc3ccccc3S(=O)(=O)C(C)C)n2)c(OC(C)C)cc1C1CCNCC1 [Ceritinib] | 0.355 | 0.502 | 0.403 | 0.962 | 0.534 | 0.281 | 0.899 | 0.885 | 0.344 | 0.54 | 0.487 | 0.677 | 0.276 | 0.161 | 0.0994 | 0.61 | 0.352 | 0.365 | 0.29 | 0.32 | 0.837 | 0.828 | 0.42 | 0.966 | 0.85 | 0.813 | 0.261 | 0.622 | 0.539 | 0.63 | 0.193 | 0.303 | 0.348 | 0.657 | 0.0824 | 0.926 | 0.877 | 0.442 | 0.413 | 0.372
